Patent US5635477A, “Cyclic compounds useful as inhibitors of platelet glycoprotein IIB/IIIA” (The DuPont Merck Pharmaceutical Company, priority 1995, dated 1997)
Starred links: 1 amine or outer side, 2 acyl side, 3 side chain; linkers in the order of their positions; H or OH if unused. Non-standard residues stand in square brackets, D forms with d. Residues, ends and D or L forms follow the SMILES beside them. NMePhe(4-CH2NH2) = CN[C@@H](Cc1ccc(CN)cc1)C(=O)O; X5 = O=C(c1ccc(I)c(CN[*:1])c1)[*:2]; X4 = O=C(c1cc(CN[*:1])ccc1Cl)[*:2]; NMeOrn(Me) = CNCCC[C@H](NC)C(=O)O; NMeR = CN[C@@H](CCCNC(=N)N)C(=O)O; X3 = Cc1ccc(CN[*:1])cc1C(=O)[*:2]; X8 = O=C(c1cc(CN[*:1])ccc1I)[*:2]; dPhg = N[C@@H](C(=O)O)c1ccccc1; dNle = CCCC[C@@H](N)C(=O)O; 3Amb = NCc1cccc(C(=O)O)c1; dAbu = CC[C@@H](N)C(=O)O; βAla = NCCC(=O)O; Sar = CNCC(=O)O

Biological target: agonist-induced platelet aggregation (Homo sapiens, UniProt P05106+P08514)
Sequence (P08514 32-1039): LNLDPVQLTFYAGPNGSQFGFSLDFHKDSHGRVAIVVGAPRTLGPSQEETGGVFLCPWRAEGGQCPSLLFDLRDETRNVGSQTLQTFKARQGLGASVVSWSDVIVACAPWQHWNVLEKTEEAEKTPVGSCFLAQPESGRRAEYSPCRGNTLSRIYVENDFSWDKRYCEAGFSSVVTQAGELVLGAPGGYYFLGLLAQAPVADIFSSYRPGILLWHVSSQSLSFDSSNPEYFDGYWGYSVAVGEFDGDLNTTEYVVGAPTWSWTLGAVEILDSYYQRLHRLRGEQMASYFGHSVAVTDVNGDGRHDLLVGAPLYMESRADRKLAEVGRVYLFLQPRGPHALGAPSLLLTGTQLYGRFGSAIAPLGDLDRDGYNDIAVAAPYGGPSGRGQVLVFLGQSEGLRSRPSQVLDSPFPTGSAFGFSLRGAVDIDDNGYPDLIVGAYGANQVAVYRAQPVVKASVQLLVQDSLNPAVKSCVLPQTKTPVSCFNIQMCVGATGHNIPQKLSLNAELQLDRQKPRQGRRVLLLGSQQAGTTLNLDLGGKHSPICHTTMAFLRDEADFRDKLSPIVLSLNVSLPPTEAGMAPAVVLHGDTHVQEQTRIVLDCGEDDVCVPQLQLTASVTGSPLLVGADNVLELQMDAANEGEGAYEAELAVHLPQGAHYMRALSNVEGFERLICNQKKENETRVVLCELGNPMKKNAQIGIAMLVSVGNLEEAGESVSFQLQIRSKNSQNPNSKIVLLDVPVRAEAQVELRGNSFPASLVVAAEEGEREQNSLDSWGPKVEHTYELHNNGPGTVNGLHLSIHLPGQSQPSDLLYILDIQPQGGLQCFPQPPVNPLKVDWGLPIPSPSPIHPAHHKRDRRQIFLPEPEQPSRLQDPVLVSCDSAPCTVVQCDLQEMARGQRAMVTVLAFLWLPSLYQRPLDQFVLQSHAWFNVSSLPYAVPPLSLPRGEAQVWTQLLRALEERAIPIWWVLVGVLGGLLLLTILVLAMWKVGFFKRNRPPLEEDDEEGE
Sequence (P05106 27-788): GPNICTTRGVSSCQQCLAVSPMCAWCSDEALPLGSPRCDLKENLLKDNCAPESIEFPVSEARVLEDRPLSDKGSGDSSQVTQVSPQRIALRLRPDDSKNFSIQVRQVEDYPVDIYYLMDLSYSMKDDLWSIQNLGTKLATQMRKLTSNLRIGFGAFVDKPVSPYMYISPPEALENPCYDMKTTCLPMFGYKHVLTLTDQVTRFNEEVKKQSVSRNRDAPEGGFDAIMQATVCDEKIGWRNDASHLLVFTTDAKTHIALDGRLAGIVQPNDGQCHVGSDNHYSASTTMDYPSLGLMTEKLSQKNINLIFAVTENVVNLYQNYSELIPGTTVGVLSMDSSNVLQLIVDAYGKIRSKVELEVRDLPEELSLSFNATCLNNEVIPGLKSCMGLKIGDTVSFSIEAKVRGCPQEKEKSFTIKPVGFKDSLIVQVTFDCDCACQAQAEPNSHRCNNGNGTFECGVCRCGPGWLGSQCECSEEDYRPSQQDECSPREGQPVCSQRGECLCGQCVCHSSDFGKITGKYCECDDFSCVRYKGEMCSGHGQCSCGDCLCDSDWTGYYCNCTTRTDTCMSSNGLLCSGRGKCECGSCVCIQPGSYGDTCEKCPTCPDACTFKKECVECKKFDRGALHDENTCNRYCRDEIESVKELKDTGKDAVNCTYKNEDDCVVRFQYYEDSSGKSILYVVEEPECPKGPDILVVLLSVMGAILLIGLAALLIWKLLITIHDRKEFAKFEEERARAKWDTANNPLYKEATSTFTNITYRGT
Assay: Platelet Aggregation Assay
Format: cell-based
Conditions: human PRP; agonist-induced aggregation
Description: Blood was collected into 10 ml citrated Vacutainer tubes.

`CN1C(=O)[C@H]2CCCN2C(=O)c2cccc(c2)CNC(=O)[C@H](CC(=O)O)NC(=O)CNC(=O)[C@@H]1CCCNC(=N)N` [Example 25, cyclo-(D-Pro-NMeArg-Gly-Asp-Mamb)] (cyclo([NMeR]GD[3Amb][dP])) and `C[C@H]1NC(=O)c2cccc(c2)CNC(=O)[C@H](CC(=O)O)NC(=O)CNC(=O)[C@H](CCCNC(=N)N)N(C)C1=O` [Example 2, cyclo-(D-Ala-NMeArg-Gly-Asp-Mamb)] (cyclo([NMeR]GD[3Amb][dA])) cannot be ordered by IC50: less than 1 µM for the first, less than 1 µM for the second.

`CN1C(=O)[C@@H](Cc2ccc(O)cc2)NC(=O)c2cccc(c2)CNC(=O)[C@H](CC(=O)O)NC(=O)CNC(=O)[C@@H]1CCCNC(=N)N` [Example 28f, cyclo-(D-Tyr-NMeArg-Gly-Asp-Mamb)] (cyclo([NMeR]GD[3Amb][dY])) and `CN1C(=O)[C@@H](Cc2ccccc2)NC(=O)c2cccc(c2)CNC(=O)[C@H](CC(=O)O)NC(=O)CNC(=O)[C@@H]1CCCNC(=N)N` [Example 12, cyclo-(D-Phe-NMeArg-Gly-Asp-Mamb)] (cyclo([NMeR]GD[3Amb][dF])) cannot be ordered by IC50: less than 1 µM for the first, less than 1 µM for the second.

`N=C(N)NCCC[C@@H]1NC(=O)[C@@H](CO)NC(=O)c2cccc(c2)CNC(=O)[C@H](CC(=O)O)NC(=O)CNC1=O` [Example 35, cyclo-(D-Ser-Arg-Gly-Asp-Mamb)] (cyclo(RGD[3Amb][dS])) and `CC[C@H]1NC(=O)c2cccc(c2)CNC(=O)[C@H](CC(=O)O)NC(=O)CNC(=O)[C@H](CCCNC(=N)N)NC1=O` [Example 34, cyclo-(D-Abu-Arg-Gly-Asp-Mamb)] (cyclo(RGD[3Amb][dAbu])) fall in the same range of IC50: 1 to 10 µM for the first, 1 to 10 µM for the second.

`CC(C)C[C@H]1NC(=O)c2cccc(c2)CNC(=O)[C@H](CC(=O)O)NC(=O)CNC(=O)[C@H](CCCNC(=N)N)NC1=O` [Example 33, cyclo-(D-Leu-Arg-Gly-Asp-Mamb)] (cyclo(RGD[3Amb][dL])) and `CC(C)[C@H]1NC(=O)c2cccc(c2)CNC(=O)[C@H](CC(=O)O)NC(=O)CNC(=O)[C@H](CCCNC(=N)N)NC1=O` [Example 32, cyclo-(D-Val-Arg-Gly-Asp-Mamb)] fall in the same range of IC50: 1 to 10 µM for the first, 1 to 10 µM for the second.

`CC(C)[C@H]1NC(=O)c2ccc3c(c2)C(CCC3)NC(=O)[C@H](CC(=O)O)NC(=O)CNC(=O)[C@H](CCCNC(=N)N)N(C)C1=O` (single isomer, unassigned) [Example 89a, cyclo-(D-Val-NMeArg-Gly-Asp-aminotetralincarboxylic acid)] and `CC(C)[C@H]1NC(=O)c2ccc(I)c(c2)CNC(=O)[C@H](CC(=O)O)NC(=O)CNC(=O)[C@H](CCCNC(=N)N)N(C)C1=O` [Example 94, cyclo-(D-Val-NMeArg-Gly-Asp-iodo-Mamb)] cannot be ordered by IC50: less than 1 µM for the first, less than 1 µM for the second.

`CC(C)[C@H]1NC(=O)c2cccc(c2)CNC(=O)C(C)(CC(=O)O)NC(=O)CNC(=O)[C@H](CCCNC(=N)N)N(C)C1=O` (single isomer, unassigned) [Example 63, cyclo-(D-Val-NMeArg-Gly-α-MeAsp-Mamb)] and `CC(C)[C@H]1NC(=O)c2cccc(c2)CNC(=O)[C@H](CC(=O)O)NC(=O)CNC(=O)[C@@H](CCCNC(=N)N)N(C)C1=O` [Example 4b, cyclo-(D-Val-D-NMeArg-Gly-Asp-Mamb)] fall in the same range of IC50: 1 to 10 µM for the first, 1 to 10 µM for the second.

First: CC(C)[C@H]1NC(=O)c2ccccc2CNC(=O)[C@H](CC(=O)O)NC(=O)CNC(=O)[C@H](CCCNC(=N)N)N(C)C1=O [Example 91, cyclo-(D-Val-NMeArg-Gly-Asp-2-aminomethylbenzoic acid)]
Second: CC(C)[C@H]1NC(=O)c2cccc(c2)CNC(=O)[C@@H](CC(=O)O)NC(=O)CNC(=O)[C@H](CCCNC(=N)N)N(C)C1=O [Example 64c, cyclo-(D-Val-NMeArg-Gly-D-Asp-Mamb)]
The IC50 of the first is lower: less than 1 µM for the first, 1 to 10 µM for the second. The first is the more potent here.

`N=C(N)NCCC[C@@H]1NC(=O)[C@H](Cc2ccccc2)NC(=O)c2cccc(c2)CNC(=O)[C@H](CC(=O)O)NC(=O)CNC1=O` [Example 37, cyclo-(Phe-Arg-Gly-Asp-Mamb)] (cyclo(RGD[3Amb]F)) and `N=C(N)NCCC[C@@H]1NC(=O)[C@@H](Cc2ccccc2)NC(=O)c2cccc(c2)CNC(=O)[C@H](CC(=O)O)NC(=O)CNC1=O` [Example 36, cyclo-(D-Phe-Arg-Gly-Asp-Mamb)] (cyclo(RGD[3Amb][dF])) fall in the same range of IC50: 10 to 100 µM for the first, 10 to 100 µM for the second.

`CCCC[C@H]1NC(=O)c2cccc(c2)CNC(=O)[C@H](CC(=O)O)NC(=O)CNC(=O)[C@H](CCCNC(=N)N)N(C)C1=O` [Example 7, cyclo-(D-Nle-NMeArg-Gly-Asp-Mamb)] (cyclo([NMeR]GD[3Amb][dNle])) and `CN1C(=O)[C@@H](CCCCN)NC(=O)c2cccc(c2)CNC(=O)[C@H](CC(=O)O)NC(=O)CNC(=O)[C@@H]1CCCNC(=N)N` [Example 13f, cyclo-(D-Lys-NMeArg-Gly-Asp-Mamb)] (cyclo([NMeR]GD[3Amb][dK])) cannot be ordered by IC50: less than 1 µM for the first, less than 1 µM for the second.

`CC[C@H]1NC(=O)c2ccc(I)c(c2)CNC(=O)[C@H](CC(=O)O)NC(=O)CNC(=O)[C@H](CCCNC(=N)N)N(C)C1=O` [Example 89d, cyclo-(D-Abu-NMeArg-Gly-Asp-iodo-Mamb)] (cyclo([NMeR]GD[X5][dAbu])) and `CC[C@H]1NC(=O)c2cc(ccc2I)CNC(=O)[C@H](CC(=O)O)NC(=O)CNC(=O)[C@H](CCCNC(=N)N)N(C)C1=O` [Example 100b, cyclo-(D-Abu-NMeArg-Gly-Asp-3-aminomethyl-6-iodobenzoic acid)] (cyclo([NMeR]GD[X8][dAbu])) cannot be ordered by IC50: less than 1 µM for the first, less than 1 µM for the second.

`C[C@H]1NC(=O)c2cccc(c2)CNC(=O)[C@H](CC(=O)O)NC(=O)CNC(=O)[C@H](CCCNC(=N)N)NC1=O` [Example 30, cyclo-(D-Ala-Arg-Gly-Asp-Mamb)] (cyclo(RGD[3Amb][dA])) and `N=C(N)NCCC[C@@H]1NC(=O)CNC(=O)c2cccc(c2)CNC(=O)[C@H](CC(=O)O)NC(=O)CNC1=O` [Example 29, cyclo-(Gly-Arg-Gly-Asp-Mamb)] (cyclo(RGD[3Amb]G)) fall in the same range of IC50: 1 to 10 µM for the first, 1 to 10 µM for the second.

First: CC(C)[C@H]1NC(=O)c2cccc(c2)CNC(=O)[C@H](CC(=O)O)NC(=O)CCNC(=O)[C@H](CCCNC(=N)N)N(C)C1=O [Example 54, cyclo-(D-Val-NMeArg-b-Ala-Asp-Mamb)] (cyclo([3Amb][dV][NMeR][βAla]D))
Second: CC[C@@H](C)[C@H]1NC(=O)c2cccc(c2)CNC(=O)[C@H](CC(=O)O)NC(=O)CNC(=O)[C@H](CCCNC(=N)N)N(C)C1=O [Example 13r, cyclo-(D-Ile-NMeArg-Gly-Asp-Mamb)] (cyclo([NMeR]GD[3Amb][dI]))
The IC50 of the first is higher: 1 to 10 µM for the first, less than 1 µM for the second.

`CC(C)[C@H]1NC(=O)c2cccc(c2)CNC(=O)C(C)(CC(=O)O)NC(=O)CNC(=O)[C@H](CCCNC(=N)N)N(C)C1=O` (single isomer, unassigned) [Example 63a, cyclo-(D-Val-NMeArg-Gly-α-MeAsp-Mamb)] and `CC(C)[C@H]1NC(=O)c2cccc(c2)CNC(=O)[C@H](CC(=O)O)NC(=O)[C@H](C)NC(=O)[C@H](CCCNC(=N)N)N(C)C1=O` [Example 58c, cyclo-(D-Val-NMeArg-L-Ala-Asp-Mamb)] (cyclo([3Amb][dV][NMeR]AD)) fall in the same range of IC50: 10 to 100 µM for the first, 10 to 100 µM for the second.

`CN1C(=O)[C@@H](c2ccccc2)NC(=O)c2cccc(c2)CNC(=O)[C@H](CC(=O)O)NC(=O)CNC(=O)[C@@H]1CCCNC(=N)N` [Example 11, cyclo-(D-Phg-NMeArg-Gly-Asp-Mamb)] (cyclo([NMeR]GD[3Amb][dPhg])) and `CN1C(=O)CNC(=O)c2cccc(c2)CNC(=O)[C@H](CC(=O)O)NC(=O)CNC(=O)[C@@H]1CCCNC(=N)N` [Example 1, cyclo-(Gly-NMeArg-Gly-Asp-Mamb)] (cyclo([NMeR]GD[3Amb]G)) cannot be ordered by IC50: less than 1 µM for the first, less than 1 µM for the second.

Compared with `CC(C)C[C@H]1NC(=O)c2cccc(c2)CNC(=O)[C@H](CC(=O)O)NC(=O)CNC(=O)[C@H](CCCNC(=N)N)N(C)C1=O` [Example 5, cyclo-(D-Leu-NMeArg-Gly-Asp-Mamb)] (cyclo([NMeR]GD[3Amb][dL])), `CC[C@H]1NC(=O)c2cccc(c2)CNC(=O)[C@H](CC(=O)O)NC(=O)CNC(=O)[C@H](CCCNC)N(C)C1=O` [Example 89e, cyclo-(D-Abu-di-NMeOrn-Gly-Asp-Mamb)] (cyclo([dAbu][NMeOrn(Me)]GD[3Amb])) is higher in IC50: less than 1 µM for the first, 1 to 10 µM for the second.

`CC[C@H]1NC(=O)c2cc(ccc2Cl)CNC(=O)[C@H](CC(=O)O)NC(=O)CNC(=O)[C@H](CCCNC(=N)N)N(C)C1=O` [Example 100a, cyclo-(D-Abu-NMeArg-Gly-Asp-3-aminomethyl-6-chlorobenzoic acid)] (cyclo([NMeR]GD[X4][dAbu])) and `CC[C@H]1NC(=O)c2cc(ccc2C)CNC(=O)[C@H](CC(=O)O)NC(=O)CNC(=O)[C@H](CCCNC(=N)N)N(C)C1=O` [Example 100c, cyclo-(D-Abu-NMeArg-Gly-Asp-3-aminomethyl-6-methylbenzoic acid)] (cyclo([NMeR]GD[X3][dAbu])) cannot be ordered by IC50: less than 1 µM for the first, less than 1 µM for the second.

Compared with `CC(C)[C@H]1NC(=O)c2ccc3cccc(c3c2)CNC(=O)[C@H](CC(=O)O)NC(=O)CNC(=O)[C@H](CCCNC(=N)N)N(C)C1=O` [Example 89c, cyclo-(D-Val-NMeArg-Gly-Asp-aminomethylnaphthoic acid)], `CC(C)[C@H]1NC(=O)c2ccc(Cl)c(c2)CNC(=O)[C@H](CC(=O)O)NC(=O)CNC(=O)[C@H](CCCNC(=N)N)N(C)C1=O` [Example 93, cyclo-(D-Val-NMeArg-Gly-Asp-3-aminomethyl-4-chlorobenzoic acid)] is lower in IC50: 1 to 10 µM for the first, less than 1 µM for the second.

`CC(C)[C@H]1NC(=O)c2ccc3c(c2)C(CCC3)NC(=O)[C@H](CC(=O)O)NC(=O)CNC(=O)[C@H](CCCNC(=N)N)N(C)C1=O` (single isomer, unassigned) [Example 89b, cyclo-(D-Val-NMeArg-Gly-Asp-aminotetralincarboxylic acid)] and `CC(C)[C@H]1NC(=O)Cc2cccc(c2)NC(=O)[C@H](CC(=O)O)NC(=O)CNC(=O)[C@H](CCCNC(=N)N)N(C)C1=O` [Example 92, cyclo-(D-Val-NMeArg-Gly-Asp-3-aminophenylacetic acid)] cannot be ordered by IC50: less than 1 µM for the first, less than 1 µM for the second.

`CN1CC(=O)N(C)[C@@H](CCCNC(=N)N)C(=O)NCC(=O)N[C@@H](CC(=O)O)C(=O)NCc2cccc(c2)C1=O` [Example 18, cyclo-(NMeGly-NMeArg-Gly-Asp-Mamb)] (cyclo([NMeR]GD[3Amb][Sar])) and `CC(C)[C@H]1NC(=O)c2cccc(c2)CNC(=O)[C@H](CC(=O)O)NC(=O)CNC(=O)[C@H](Cc2ccc(CN)cc2)N(C)C1=O` [Example 40, cyclo-(D-Val-NMeAmf-Gly-Asp-Mamb)] (cyclo([dV][NMePhe(4-CH2NH2)]GD[3Amb])) cannot be ordered by IC50: less than 1 µM for the first, less than 1 µM for the second.
